One assay deals with T1, rat P2X3R (Rattus norvegicus, UniProt P49654).
T1 sequence (P49654 1-397): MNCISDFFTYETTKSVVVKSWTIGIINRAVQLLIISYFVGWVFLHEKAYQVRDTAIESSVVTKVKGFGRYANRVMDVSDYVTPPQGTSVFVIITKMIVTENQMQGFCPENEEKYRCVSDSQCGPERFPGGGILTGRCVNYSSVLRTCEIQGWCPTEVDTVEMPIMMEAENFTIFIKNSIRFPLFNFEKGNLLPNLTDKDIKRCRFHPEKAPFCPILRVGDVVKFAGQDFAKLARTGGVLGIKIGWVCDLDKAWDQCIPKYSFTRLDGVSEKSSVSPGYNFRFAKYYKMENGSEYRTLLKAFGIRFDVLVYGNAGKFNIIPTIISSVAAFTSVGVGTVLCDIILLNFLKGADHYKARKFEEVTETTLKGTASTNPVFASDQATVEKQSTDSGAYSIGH
The assay is described as follows: whole-cell patch clamp in transfected HEK293 cells. The settings on record: HEK293, read-out: % inhibition at 10 μM. In kind it is cell-based. (In patch-clamp work, channel activity is measured electrically.)

The next assay concerns the target T2, rat P2X4R (rP2X4R) (Rattus norvegicus, UniProt P51577).
T2 sequence (P51577 1-388): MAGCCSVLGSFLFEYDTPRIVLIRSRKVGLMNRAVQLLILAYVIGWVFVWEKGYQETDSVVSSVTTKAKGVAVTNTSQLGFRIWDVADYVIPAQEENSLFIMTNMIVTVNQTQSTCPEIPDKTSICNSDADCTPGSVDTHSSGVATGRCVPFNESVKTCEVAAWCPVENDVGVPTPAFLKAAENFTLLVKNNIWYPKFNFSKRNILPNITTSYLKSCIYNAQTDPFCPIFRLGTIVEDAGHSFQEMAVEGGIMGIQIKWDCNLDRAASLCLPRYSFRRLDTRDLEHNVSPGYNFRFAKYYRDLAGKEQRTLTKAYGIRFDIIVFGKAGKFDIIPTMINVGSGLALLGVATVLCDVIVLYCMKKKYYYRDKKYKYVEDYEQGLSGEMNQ
Put plainly: cell-based.

Molecules are shown by their SMILES.

Drawing on publication PMC6320288 (Neuroscience letters, 2018), this text covers inhibition and EC50 for two compounds.

Take `O=C1CN=C(c2cccc(Br)c2)c2oc3ccccc3c2N1` [5-BDBD, 5-(3-bromophenyl)-1,3-dihydro-2H-benzofuro[3,2-e]-1,4-diazepin-2-one]: the inhibition (usually the change of the read-out against control, counted positive when it falls) at 10 µM on rat P2X3R was determined as 35.9 ± 10.1%.

On to `Nc1ncnc2c1ncn2[C@@H]1O[C@H](COP(=O)(O)OP(=O)(O)OP(=O)(O)O)[C@@H](O)[C@H]1O` [ATP], for which the EC50 (as a rule, the concentration giving half of the maximal effect) on rat P2X4R (rP2X4R) was 4.7 ± 1.8 µM.
